# Measured values published in US20030040515A1, “Regulation of platelet adhesion and aggregation” (priority 2002, published 2003).
# Assays:
# [1] = test system: vWF depolymerizing activity of BAECcm; assay: Inhibitor profile of the vWF depolymerizing activity of BAEC conditioned medium; type: biochemical; conditions: measured by agarose gel electrophoresis or collagen binding; BAECcm treated with agent
# [2] = target: T1, purified human vWF (Homo sapiens, UniProt P04275+P07996); assay: ELISA of salt-resistant complexes between TSP-1 and vWF; type: binding
# T1 construct: Purified vWF from human plasma was obtained from the Baker Medical Research Institute; TSP-1 was purified to homogeneity from pooled outdated human platelet concentrates; tissue Baker Medical Research Institute, Melbourne (vWF); host or cells: human plasma (vWF); human platelet concentrates (TSP-1)
# Source text: The first step in reduction of a disulfide bond is nucleophilic attack on the substrate disulfide bond by a reductant thiol which results in formation of a disulfide-linked complex between the substrate and the reductant. Release of the reductant from the complex requires nucleophilic attack on the disulfide linkage by another thiol, usually of the reductant. We reasoned that N-ethylmaleimide (NEM, Sigma, St. Louis, Mo.) might trap intermediate covalent complexes of TSP-1 and vWF by blocking the TSP-1 thiol responsible for separating TSP-1 and vWF. Maleimides react rapidly and specifically with cysteine thiols at neutral pH. This prediction was tested by measuring formation of salt-resistant complexes between TSP-1 and vWF and the effect of the thiol-blocking reagent, NEM, on complex formation.
# Purified vWF from human plasma was obtained from the Baker Medical Research Institute, Melbourne and was purified according to Booth et at. (1984). The vWF (100 μl of 5 μg per ml in 0.1M NaHCO3, pH 8.3 buffer) was adsorbed to Nunc PolySorp 96 well plates overnight at 4° C. in a humid environment. […] Wells were washed three times with Hepes buffer and the peroxidase detected as described previously (Favaloro et al., 1991). […]
# [3] = pH 8; cited from earlier work
# [4] = target: purified vWF (Homo sapiens, UniProt P04275); assay: Effect of purified reductants or thiol reagents on the average multimer size of purified vWF (agarose gel electrophoresis); type: biochemical; parameters: Purified vWF from human plasma was obtained from the Baker Medical Research Institute; tissue Baker Medical Research Institute, Melbourne; host or cells: human plasma; conditions: incubation of vWF with IAM or NEM alone
# [5] = target: T2, vWF (Homo sapiens, UniProt P04275); assay: Reduction in average multimer size of vWF in TTP plasma (agarose gel, collagen binding/vWF antigen); type: biochemical; conditions: plasma from a patient with TTP
# T2 construct: from tissue; host or cells: plasma of a TTP patient (vWF); human platelet concentrates (TSP-1)
# Method: TTP plasma was incubated with 20 mM Hepes, 0.14M NaCl, 1 mM CaCl2, 1 mM MgCl2, pH 7.4 buffer, conditioned media of HMEC-1 cells or the Hepes buffer containing TSP-1 for 1 or 24 hours at 37° C. Aliquots of the reactions were diluted 10-fold in the Hepes buffer and assayed for collagen binding affinity and vWF antigen as described by Favaloro et al. (1991). On some occasions, aliquots of the reactions were resolved on 1% agarose gel electrophoresis (Ruggeri and Zimmerman, 1980), transferred to PVDF membrane (DuPont NEN, Boston, Mass.), blotted with 2 μg per ml of horse radish peroxidase conjugated anti-vWF polyclonal antibodies (DAKO Corporation, Carpinteria, Calif.) and visualized using chemiluminescence (DuPont NEN, Boston, Mass.).
# TSP-1 is a major component of platelet α-granules which is secreted upon platelet activation and aggregation. TSP-1 was purified to homogeneity from pooled outdated human platelet concentrates (Murphy-Ullrich and Mosher. 1985; Hogg et al., 1997) and tested for vWF reductase activity. Buffers containing 0.1 mM CaCl2 were used throughout the chromatographic purification of TSP1. […] In particular, the very large multimers were lost (see bracket in FIG. 3A). […] TSP-1-mediated reduction in vWF multimer size was concentration- and time-dependent (FIG. 3B). Three different preparations of platelet TSP-1 had the same vWF reducing activity (not shown). It is noteworthy that the molar ratio of TSP-1 to vWF influenced the extent of reduction in vWF multimer size (FIG. 3B). The vWF reductase activity in endothelial cell conditioned medium is inhibited by EDTA. In accordance with this observation, chelation of Ca^2+ with EDTA ablated the vWF reductase activity of TSP-1 (not shown).
# [6] = target: T3, plasma vWF (Mus musculus, UniProt Q8CIZ8); assay: Reduction in the average multimer size of vWF by TSP-1 in vivo; conditions: Balb c mice; 1 mg per kg intraperitoneal; plasma 24 hours later; p<0.05 vs buffer vehicle
# T3 construct: from tissue; host or cells: plasma of Balb c mice (in vivo)
# Method: The ability of TSP-1 to reduce the average multimer size of vWF in vivo was examined by administering TSP-1 to mice via intraperitoneal injection and measuring the consequence for the average multimer size of plasma vWF. Balb c mice (7 to 9 weeks of age) were administered either buffer vehicle (n=4) or 1 mg per kg purified human platelet TSP-1 (n=4) via 0.1 ml intraperitoneal injections. There were 2 male and 2 female mice in each group. Blood was collected by cardiac puncture into EDTA 24 hours later and the plasma was analyzed in triplicate for vWF antigen levels and collagen binding affinity.
# T3 sequence (Q8CIZ8 764-2813 limits assumed): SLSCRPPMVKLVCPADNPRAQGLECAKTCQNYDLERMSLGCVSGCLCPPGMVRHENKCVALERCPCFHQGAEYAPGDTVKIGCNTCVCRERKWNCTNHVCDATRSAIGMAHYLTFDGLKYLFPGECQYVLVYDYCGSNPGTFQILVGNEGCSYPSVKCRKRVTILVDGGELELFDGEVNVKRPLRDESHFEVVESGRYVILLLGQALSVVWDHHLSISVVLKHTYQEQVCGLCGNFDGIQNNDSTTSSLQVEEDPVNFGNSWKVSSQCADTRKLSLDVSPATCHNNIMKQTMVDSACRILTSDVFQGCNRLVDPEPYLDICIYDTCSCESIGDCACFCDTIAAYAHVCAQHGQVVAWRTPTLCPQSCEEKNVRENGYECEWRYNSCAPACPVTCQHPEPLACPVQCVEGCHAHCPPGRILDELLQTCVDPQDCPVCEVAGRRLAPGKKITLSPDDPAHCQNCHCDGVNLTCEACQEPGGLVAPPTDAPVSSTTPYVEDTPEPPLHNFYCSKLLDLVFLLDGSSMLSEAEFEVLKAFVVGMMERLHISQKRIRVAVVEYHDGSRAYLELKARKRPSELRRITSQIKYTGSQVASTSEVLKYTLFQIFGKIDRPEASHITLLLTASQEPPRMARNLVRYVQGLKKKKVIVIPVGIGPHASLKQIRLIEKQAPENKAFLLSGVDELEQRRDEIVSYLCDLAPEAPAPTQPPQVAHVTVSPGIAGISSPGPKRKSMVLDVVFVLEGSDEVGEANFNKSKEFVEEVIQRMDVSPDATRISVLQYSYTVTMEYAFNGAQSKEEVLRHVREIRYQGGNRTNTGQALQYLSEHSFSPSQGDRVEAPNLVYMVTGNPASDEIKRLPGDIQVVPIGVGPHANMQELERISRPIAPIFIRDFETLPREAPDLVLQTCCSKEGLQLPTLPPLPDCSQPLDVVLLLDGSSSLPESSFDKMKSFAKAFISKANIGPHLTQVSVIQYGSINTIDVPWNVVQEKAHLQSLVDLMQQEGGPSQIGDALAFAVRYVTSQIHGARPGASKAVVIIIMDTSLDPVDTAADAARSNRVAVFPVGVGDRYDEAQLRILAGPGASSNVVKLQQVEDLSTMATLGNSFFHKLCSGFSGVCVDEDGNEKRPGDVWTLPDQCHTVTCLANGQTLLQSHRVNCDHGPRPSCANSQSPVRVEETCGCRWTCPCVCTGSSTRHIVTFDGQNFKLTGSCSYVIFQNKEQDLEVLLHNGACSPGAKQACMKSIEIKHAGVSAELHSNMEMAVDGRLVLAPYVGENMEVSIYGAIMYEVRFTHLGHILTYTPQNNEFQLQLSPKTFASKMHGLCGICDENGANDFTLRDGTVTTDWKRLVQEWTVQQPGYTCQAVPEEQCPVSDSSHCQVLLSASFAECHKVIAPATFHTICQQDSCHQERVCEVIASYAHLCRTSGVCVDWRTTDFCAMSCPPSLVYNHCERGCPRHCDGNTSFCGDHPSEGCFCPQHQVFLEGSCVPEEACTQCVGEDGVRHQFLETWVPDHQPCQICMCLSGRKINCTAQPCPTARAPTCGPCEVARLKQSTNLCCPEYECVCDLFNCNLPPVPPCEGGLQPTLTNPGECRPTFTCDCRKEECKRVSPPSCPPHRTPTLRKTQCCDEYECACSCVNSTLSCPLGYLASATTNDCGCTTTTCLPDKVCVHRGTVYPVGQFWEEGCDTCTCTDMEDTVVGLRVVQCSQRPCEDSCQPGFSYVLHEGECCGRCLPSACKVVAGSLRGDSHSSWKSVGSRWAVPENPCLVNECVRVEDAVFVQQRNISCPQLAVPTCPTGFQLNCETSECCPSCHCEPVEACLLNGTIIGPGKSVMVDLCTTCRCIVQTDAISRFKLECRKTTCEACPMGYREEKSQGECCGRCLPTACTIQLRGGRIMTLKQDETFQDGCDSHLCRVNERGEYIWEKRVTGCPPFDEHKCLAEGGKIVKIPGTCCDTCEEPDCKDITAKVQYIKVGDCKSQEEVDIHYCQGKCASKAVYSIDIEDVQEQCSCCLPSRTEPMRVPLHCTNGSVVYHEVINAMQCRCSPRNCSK
"effect on average multimer size of vWF ([5]; 37° C., agarose gel electrophoresis)",effect on affinity of vWF for collagen ([5]; collagen binding relative to vWF antigen),"binding of TSP-1 to wells not coated with vWF ([2]; 10 μg per ml TSP-1, wells blocked with BSA)",CBA/vWFAg (average multimer size of plasma vWF) [6],Compound,effect on vWF depolymerizing activity of BAECcm [1],"fold more TSP-1 bound to vWF in the presence of NEM ([2]; 5 or 20 mM NEM, TSP-1 0 to 10 μg per ml, 30 minutes at room temperature, 1M NaCl wash)",second order rate constant of reaction with free thiols [3],effect on average multimer size of vWF [4]
–,–,–,–,"CCN1C(=O)C=CC1=O [NEM, N-ethylmaleimide]",inactivated,Up to 8 fold,~10^4 M^−1s^−1,did not have any discernible effect
reduced the average multimer size of vWF,decrease in affinity of vWF for collagen,no binding,0.83±0.05,thrombospondin-1 [TSP-1],–,–,–,–
